Source: publication PMC6934184, “Selective DNA-PKcs inhibition extends the therapeutic index of localized radiotherapy and chemotherapy” (The Journal of Clinical Investigation, 2019)

Biological target: T1, MST1R (RON) (Homo sapiens, UniProt Q04912)
T1 construct: purchased Thermo Fisher Scientific (Life Technologies) SelectScreen
Assay: SelectScreen Z'LYTE
Assay type: biochemical
In short: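 NU5455 was profiled across the SelectScreen Broad panel of kinase activity and binding assays. Z'LYTE reactions such as CSF1R ran at apparent Km ATP, while the Adapta CAMK1 assay used ATP listed as 10. Values are given as percent.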

T1 sequence (Q04912 25-1400): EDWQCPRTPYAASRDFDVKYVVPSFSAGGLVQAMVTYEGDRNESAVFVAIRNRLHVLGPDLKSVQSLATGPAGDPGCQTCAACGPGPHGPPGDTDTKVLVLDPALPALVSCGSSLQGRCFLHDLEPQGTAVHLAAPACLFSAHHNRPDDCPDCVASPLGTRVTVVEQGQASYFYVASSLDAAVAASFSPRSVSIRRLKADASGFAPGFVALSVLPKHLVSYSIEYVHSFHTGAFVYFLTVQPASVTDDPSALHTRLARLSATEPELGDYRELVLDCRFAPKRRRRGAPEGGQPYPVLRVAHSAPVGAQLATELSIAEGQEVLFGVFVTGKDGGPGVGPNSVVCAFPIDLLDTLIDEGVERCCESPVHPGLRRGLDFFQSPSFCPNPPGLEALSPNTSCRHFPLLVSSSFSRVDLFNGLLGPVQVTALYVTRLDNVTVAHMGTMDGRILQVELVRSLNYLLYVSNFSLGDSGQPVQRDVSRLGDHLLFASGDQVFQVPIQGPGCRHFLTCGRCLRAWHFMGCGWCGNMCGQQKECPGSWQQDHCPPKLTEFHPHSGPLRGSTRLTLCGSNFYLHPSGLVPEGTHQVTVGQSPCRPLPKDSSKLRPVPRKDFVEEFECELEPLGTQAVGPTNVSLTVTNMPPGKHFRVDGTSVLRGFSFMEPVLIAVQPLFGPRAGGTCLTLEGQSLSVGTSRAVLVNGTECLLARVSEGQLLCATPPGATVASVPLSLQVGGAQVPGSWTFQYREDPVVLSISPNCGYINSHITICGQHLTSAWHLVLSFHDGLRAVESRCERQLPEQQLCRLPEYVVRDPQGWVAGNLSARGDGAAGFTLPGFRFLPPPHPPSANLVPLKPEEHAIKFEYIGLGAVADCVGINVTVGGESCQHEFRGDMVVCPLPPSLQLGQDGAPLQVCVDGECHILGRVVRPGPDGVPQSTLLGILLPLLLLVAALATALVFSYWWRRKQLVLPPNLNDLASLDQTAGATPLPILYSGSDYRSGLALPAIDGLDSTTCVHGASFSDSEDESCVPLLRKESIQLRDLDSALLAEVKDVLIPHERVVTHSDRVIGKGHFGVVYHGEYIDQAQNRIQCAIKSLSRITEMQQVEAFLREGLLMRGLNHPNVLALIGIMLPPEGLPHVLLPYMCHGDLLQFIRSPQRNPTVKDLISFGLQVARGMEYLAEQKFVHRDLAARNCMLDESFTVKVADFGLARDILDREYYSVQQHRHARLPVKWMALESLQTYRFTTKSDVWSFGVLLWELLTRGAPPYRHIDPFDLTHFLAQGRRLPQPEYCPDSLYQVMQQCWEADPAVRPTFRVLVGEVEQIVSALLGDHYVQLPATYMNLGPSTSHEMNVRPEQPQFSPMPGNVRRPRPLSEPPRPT

`CN(C(=O)CN1CCOCC1)c1ccc2sc3c(-c4cccc5c(=O)cc(N6CC7CCC(C6)O7)oc45)cccc3c2c1` [NU5455] showed an inhibition at 1 µM of -13.4%.
